Assay results taken from patent US8058455B2, “Compound signamycin, method for production thereof, and use thereof” (priority 2008, dated 2011).
Values after ≈ are worked out from the molar mass of the structure shown.

Tests used:
B. cereus ATCC 10702 = assay: Antimicrobial activity (MIC), agar multiple dilution method; assay type: cell-based; details: Bacillus cereus, ATCC10702, Muller Hinton agar, 37° C., 18 hrs.
Method: (§1) According to the standard method of Japanese Society of Chemotherapy, signamycin A and signamycin B were measured for antimicrobial spectrum against various microorganisms including drug-resistant bacteria (methicilline resistant bacteria and vancomycin resistant bacteria) on the Muller Hinton agar medium by the multiple dilution method.

B. subtilis PCI 219 = assay: as above; assay type: cell-based; details: Bacillus subtilis, PCI219, Muller Hinton agar, 37° C., 18 hrs.
Method: as §1

[1] = test system: Bacillus subtilis NRRL B-558; assay: as above; assay type: cell-based; details: NRRLB558, Muller Hinton agar, 37° C., 18 hrs.
Method: as §1

[2] = test system: Corynebacterium bovis 1810; assay: as above; assay type: cell-based; details: Muller Hinton agar, 37° C., 18 hrs.
Method: as §1

[3] = test system: E. faecalis NCTC 12201 (VRE, vanA); assay: as above; assay type: cell-based; details: Enterococcus faecalis, 18 h
Method: as §1

[4] = test system: E. faecalis NCTC 12203 (VRE, vanA); assay: as above; assay type: cell-based; details: Enterococcus faecalis, 18 h
Method: as §1

E. faecium JCM 5804 = assay: as above; assay type: cell-based; details: Enterococcus faecium, JCM5804, Muller Hinton agar, 37° C., 18 hrs.
Method: as §1

[5] = test system: E. faecium NCTC 12202 (VRE, vanA); assay: as above; assay type: cell-based; details: Enterococcus faecium, 18 h
Method: as §1

[6] = test system: E. faecium NTCTC 12204 (VRE, vanA); assay: as above; assay type: cell-based; details: Enterococcus faecium, 18 h
Method: as §1

[7] = test system: Enterococcus faecalis JCM 5803; assay: as above; assay type: cell-based; details: JCM5803, Muller Hinton agar, 37° C., 18 hrs.
Method: as §1

Escherichia coli NIHJ = assay: as above; assay type: cell-based; details: Muller Hinton agar, 37° C., 18 hrs.
Method: as §1

M. luteus IFO 3333 = assay: as above; assay type: cell-based; details: Micrococcus luteus, IFO3333, Muller Hinton agar, 37° C., 18 hrs.
Method: as §1

M. luteus PCI 1001 = assay: as above; assay type: cell-based; details: Micrococcus luteus, PCI1001, Muller Hinton agar, 37° C., 18 hrs.
Method: as §1

[8] = test system: Micrococcus luteus FDA 16; assay: as above; assay type: cell-based; details: FDA16, Muller Hinton agar, 37° C., 18 hrs.
Method: as §1

[9] = test system: Mycobacterium smegmatis ATCC607; assay: as above; assay type: cell-based; details: Mycolicibacterium smegmatis, Muller Hinton agar, 37° C. 42 hrs.
Method: as §1

[10] = test system: Pseudomonasu aeruginosa A3; assay: as above; assay type: cell-based; details: 18 h
Method: as §1

[11] = test system: S. aureus MRSA No. 17 (MRSA); assay: as above; assay type: cell-based; details: Staphylococcus aureus, 18 h
Method: as §1

[12] = test system: S. aureus MRSA No. 5 (MRSA); assay: as above; assay type: cell-based; details: Staphylococcus aureus, 18 h
Method: as §1

S. aureus MS16526 (MRSA) = assay: as above; assay type: cell-based; details: Staphylococcus aureus, 18 h
Method: as §1

S. aureus MS9610 (MDR) = assay: as above; assay type: cell-based; details: Staphylococcus aureus, 18 h
Method: as §1

S. aureus Smith = assay: as above; assay type: cell-based; details: Staphylococcus aureus, Muller Hinton agar, 37° C., 18 hrs.
Method: as §1

[13] = test system: S. aureus TY-04282 (MRSA); assay: as above; assay type: cell-based; details: Staphylococcus aureus, 18 h
Method: as §1

[14] = test system: Staphylococcus aureus FDA 209P; assay: as above; assay type: cell-based; details: FDA209P, Muller Hinton agar, 37° C., 18 hrs.
Method: as §1

[15] = target: T1, YycG of Bacillus subtilis 168 strain (YycG-204-611) (Bacillus subtilis, UniProt Q45614); assay: YycG histidine kinase activity inhibitory test; assay type: biochemical; details: YycG-204-611, [γ-32P]ATP, 30° C.
T1 construct: a region containing the 204th amino acid to the 611th amino acid from the N-terminus; made in house; host or cells: Escherichia coli
Method: Signamycin A and signamycin B were measured for enzyme inhibitory activity against YycG of Bacillus subtilis 168 strain (B. subtilis 168).
(§2) The histidine kinase activity was measured according to the method reported in Biosci. Biotechnol. Biochem., 64, 919-923, 2000.
(§3) A DNA fragment encoding a region containing only the kinase activity domain of YycG (i.e., a region containing the 204th amino acid to the 611th amino acid from the N-terminus) was prepared through PCR from the chromosomal DNA of the Bacillus subtilis 168 strain, and was cloned into the expression vector pET21a (+). The thus-obtained plasmid pET-yycGtru was used to transform Escherichia coli cells. The culture liquid of the thus-transformed strain was treated to purify a protein expressing only the histidine kinase activity domain of YycG (YycG-204-611).
The reaction solution having the following formulation was used for measuring histidine kinase activity: 0.5 μM YycG-204-611, 50 mM Tris-HCl (pH 8.5), 100 mM KCl, 100 mM NH4Cl and 5 mM MgCl2. A 2.5 μM ATP-10 μCi [γ-^32P]ATP mixture was added to the reaction solution to initiate the reaction so that the total amount was adjusted to 10 μL. The resultant mixture was incubated at 30° C. for 10 min. After termination of the reaction, SDS-polyacrylamide gel electrophoresis was performed. […]

[16] = target: VicK of caries bacteria (VicK-31-450) (Streptococcus mutans, UniProt Q8DT64); assay: VicK histidine kinase activity inhibitory test; assay type: biochemical; details: VicK-31-450, [32P]ATP, 25° C.
Method: Signamycin A and signamycin B were measured for enzyme inhibitory activity against VicK of caries bacteria (Streptococcus mutans).
The histidine kinase activity was measured by a modified method of the method reported in Biosci. Biotechnol. Biochem., 64, 919-923, 2000.
as §3, with “VicK” for “YycG”, “31th” for “204th”, “450th” for “611th”, “caries bacteria,” for “Bacillus subtilis 168 strain,”, “pET-SMvicK31-450” for “pET-yycGtru”, “VicK (VicK-31-450).” for “YycG (YycG-204-611).”
The reaction solution having the following formulation was used for measuring histidine kinase activity: […] VicK-31-450, 50 mM Tris-HCl (pH 7.5), 50 mM KCl and 10 mM MgCl2. Signamycin A or signamycin B (1 μL) was added to the reaction solution (7 μl), followed by incubating at 25° C. for 5 min. Subsequently, 2 μL of 12.5 µM ATP containing [^32P]ATP was added to the reaction mixture (final concentration: […]) to initiate the reaction, followed by incubating at 25° C. for 20 min. […]

[17] = target: PehS of soft-rot bacteria MAFF301393 strain (PehS-209-484) (Pectobacterium carotovorum subsp. carotovorum, UniProt Q9ZIN8); assay: PehS histidine kinase activity inhibitory test; assay type: biochemical, Erwinia carotovora subsp. carotovora MAFF301393; details: for inhibitory activity against PehS (in words): summary of Table 2
Method: Signamycin A and signamycin B were measured for enzyme inhibitory activity against PehS of soft-rot bacteria MAFF301393 strain (Erwinia carotovora subsp. carotovora MAFF301393).
as §2
as §3, with “209th” for “204th”, “484th” for “611th”, “soft-rot bacteria MAFF301393” for “Bacillus subtilis 168”, “pET-pehScM2-2” for “pET-yycGtru”, “PehS (PehS-209-484).” for “YycG (YycG-204-611).”
The reaction solution having the following formulation was used for measuring histidine kinase activity: 4 μM PehS-209-484, 50 mM Tris-HCl (pH 8.5), 100 mM KCl, 100 mM NH4Cl and 5 mM MgCl2. A 2.5 μM ATP-10 μCi [γ-^32P] ATP mixture was added to the reaction solution to initiate the reaction so that the total amount was adjusted to 10 μL. The resultant mixture was incubated at 30° C. for 20 min. After termination of the reaction, SDS-polyacrylamide gel electrophoresis was performed. For measuring inhibitory activity, signamycin A or signamycin B was added to the reaction solution before the addition of the ATP mixture so as to have a predetermined concentration, followed by incubating at 30° C. for 5 min, to thereby determine the 50% inhibitory concentration (IC50) with respect to PehS of soft-rot bacteria.

[18] = test system: Staphylococcus aureus (S. aureus); assay: Antimicrobial activity, summary in words for the species; assay type: cell-based; details: summary of Table 1
Method: as §1

[19] = test system: Enterococcus (E. faecalis and E. faecium); assay: Antimicrobial activity, summary in words for the genus; assay type: cell-based; details: summary of Table 1
Method: as §1

PehS of soft-rot bacteria MAFF301393 strain (PehS-209-484), sequence (Q9ZIN8 entry or part of it): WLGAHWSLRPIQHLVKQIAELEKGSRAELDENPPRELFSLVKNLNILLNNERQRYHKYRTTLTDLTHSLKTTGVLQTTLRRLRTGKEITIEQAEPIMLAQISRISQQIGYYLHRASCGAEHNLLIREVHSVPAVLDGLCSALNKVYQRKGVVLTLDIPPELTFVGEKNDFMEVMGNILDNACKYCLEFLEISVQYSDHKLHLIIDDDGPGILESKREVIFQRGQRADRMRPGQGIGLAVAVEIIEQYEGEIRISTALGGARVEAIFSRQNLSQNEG
T1 sequence (Q45614 204-611): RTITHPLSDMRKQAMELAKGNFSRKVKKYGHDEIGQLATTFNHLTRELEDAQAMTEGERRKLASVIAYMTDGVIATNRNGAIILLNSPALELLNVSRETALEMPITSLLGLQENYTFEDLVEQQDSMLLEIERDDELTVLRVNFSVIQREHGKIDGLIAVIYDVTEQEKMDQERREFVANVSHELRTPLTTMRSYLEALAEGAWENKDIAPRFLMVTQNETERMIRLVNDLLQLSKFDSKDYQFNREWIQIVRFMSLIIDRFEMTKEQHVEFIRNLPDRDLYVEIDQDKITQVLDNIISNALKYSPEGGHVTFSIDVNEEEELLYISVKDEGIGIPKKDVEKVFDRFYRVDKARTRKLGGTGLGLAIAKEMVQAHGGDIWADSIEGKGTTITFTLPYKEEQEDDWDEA
VicK of caries bacteria (VicK-31-450), sequence (Q8DT64 entry or part of it): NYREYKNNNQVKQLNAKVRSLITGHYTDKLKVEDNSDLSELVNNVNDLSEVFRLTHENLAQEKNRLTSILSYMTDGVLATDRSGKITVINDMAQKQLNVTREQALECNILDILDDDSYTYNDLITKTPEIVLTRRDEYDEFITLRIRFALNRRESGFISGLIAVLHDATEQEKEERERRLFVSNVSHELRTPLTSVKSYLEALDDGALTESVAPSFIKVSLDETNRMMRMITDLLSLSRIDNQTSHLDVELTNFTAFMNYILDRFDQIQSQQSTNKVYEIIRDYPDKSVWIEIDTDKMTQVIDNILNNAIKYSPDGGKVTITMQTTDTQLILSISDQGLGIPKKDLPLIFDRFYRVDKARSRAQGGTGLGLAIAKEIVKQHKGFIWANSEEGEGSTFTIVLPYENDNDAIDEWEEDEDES

| SMILES | MIC (B. cereus ATCC 10702) [µg/mL] | MIC (B. subtilis PCI 219) [µg/mL] | MIC [1] [µg/mL] | MIC [2] [µg/mL] | MIC [3] [µg/mL] | MIC [4] [µg/mL] | MIC (E. faecium JCM 5804) [µg/mL] | MIC [5] [µg/mL] | MIC [6] [µg/mL] | MIC [7] [µg/mL] | MIC (Escherichia coli NIHJ) [µg/mL] | MIC (M. luteus IFO 3333) [µg/mL] | MIC (M. luteus PCI 1001) [µg/mL] | MIC [8] [µg/mL] | MIC [9] [µg/mL] | MIC [10] [µg/mL] | MIC [11] [µg/mL] | MIC [12] [µg/mL] | MIC (S. aureus MS16526 (MRSA)) [µg/mL] | MIC (S. aureus MS9610 (MDR)) [µg/mL] | other results |
| --- | --- | --- | --- | --- | --- | --- | --- | --- | --- | --- | --- | --- | --- | --- | --- | --- | --- | --- | --- | --- | --- |
| CCC1C(C)=CC2CC(C)C(O)C(CC)C2C1/C(O)=C1/C(=O)NC(C)C1=O (stereo not drawn) [Signamycin A, signamycin A] | 4 (≈ 10.7 µM) | 4 (≈ 10.7 µM) | 4 (≈ 10.7 µM) | 8 (≈ 21.3 µM) | 16 (≈ 42.6 µM) | 8 (≈ 21.3 µM) | 8 (≈ 21.3 µM) | 16 (≈ 42.6 µM) | 8 (≈ 21.3 µM) | 16 (≈ 42.6 µM) | 32 (≈ 85.2 µM) | 8 (≈ 21.3 µM) | 8 (≈ 21.3 µM) | 8 (≈ 21.3 µM) | 32 (≈ 85.2 µM) | > 100 | 8 (≈ 21.3 µM) | 8 (≈ 21.3 µM) | 8 (≈ 21.3 µM) | 8 (≈ 21.3 µM) | MIC (S. aureus Smith): 8 µg/mL (≈ 21.3 µM); MIC [13]: 8 µg/mL (≈ 21.3 µM); MIC [14]: 4 µg/mL (≈ 10.7 µM); IC50 [15]: 138 µM; IC50 [16]: 239 µM; IC50 [17]: 33.6 µM; inhibitory activity against PehS (in words) [17]: strong inhibitory activity; antimicrobial activity against Staphylococcus aureus (in words) [18]: high antimicrobial activity |
| CCCC1C(C)=CC2CC(C)C(O)C(CC)C2C1/C(O)=C1/C(=O)NC(C)C1=O (stereo not drawn) [Signamycin B, signamycin B] | 2 (≈ 5.13 µM) | 4 (≈ 10.3 µM) | 4 (≈ 10.3 µM) | 8 (≈ 20.5 µM) | 8 (≈ 20.5 µM) | 8 (≈ 20.5 µM) | 8 (≈ 20.5 µM) | 8 (≈ 20.5 µM) | 8 (≈ 20.5 µM) | 8 (≈ 20.5 µM) | 64 (≈ 164 µM) | 4 (≈ 10.3 µM) | 4 (≈ 10.3 µM) | 4 (≈ 10.3 µM) | 64 (≈ 164 µM) | > 100 | 4 (≈ 10.3 µM) | 4 (≈ 10.3 µM) | 4 (≈ 10.3 µM) | 4 (≈ 10.3 µM) | MIC (S. aureus Smith): 4 µg/mL (≈ 10.3 µM); MIC [13]: 4 µg/mL (≈ 10.3 µM); MIC [14]: 4 µg/mL (≈ 10.3 µM); IC50 [15]: 43 µM; IC50 [16]: 62.2 µM; IC50 [17]: 15.7 µM; inhibitory activity against PehS (in words) [17]: strong inhibitory activity; antimicrobial activity against Staphylococcus aureus (in words) [18]: high antimicrobial activity; antimicrobial activity against Enterococcus (in words) [19]: high antimicrobial activity |
